The results in this text go back to patent US8088819B2, “Derivatives of substituted 3-phenyl-1-(phenylthienyl)propan-1-ones and of 3-phenyl-1-(phenylfuranyl) propan-1-ones, preparation and use” (priority 2006, dated 2012).

SMILES strings stand for the structures.

Test [1] deals with ABCA1 gene in human macrophages (THP-1). The experiment in a line: Reverse cholesterol transport: expression of the ABCA1 gene in human macrophages. It counts as cell-based. The settings on record: 24 h. How it is done:
The effect of the compounds according to the invention on reverse cholesterol transport was evaluated by measuring the expression of the ABCA1 gene (ATP-binding cassette, sub-family A, member 1; membrane transporter involved in the efflux of cholesterol) in human macrophages. The more the expression of ABCA1 is increased, the greater the stimulating action of the compound according to the invention on reverse cholesterol transport.
The THP1 human monocyte line (obtained from ATCC) is cultivated in RPMI1640 medium with addition of 25 mM Hepes (Gibco; 42401-018), 1% glutamine (Gibco; 25030-24), 1% penicillin/streptomycin (Biochrom AG; A 2213) and 10% decomplemented fetal calf serum (FCS. Gibco; 26050-088).
The cells are seeded on 24-well plates (Primaria BD Falcon) at a density of 3·10^5 cells/well and incubated at 37° C. and 5% CO2 for 72 h in the presence of 30 ng/ml of phorbol 12-myristate 13-acetate (PMA) in order to differentiate them to macrophages. […]
1 μg of total RNA (quantified based on the spectrophotometer reading) was then reverse-transcribed to complementary DNA by reaction for 1 hour at 37° C. in a total volume of 30 μl containing buffer 1× (Invitrogen), 1.5 mM of DTT, 0.18 mM of dNTPs (Promega), 200 ng of pdN6 (Amersham), 30 U of RNase inhibitor (Promega) and 1 μl of MMLV-RT (Invitrogen).
The quantitative PCR experiments were carried out using the MyiQ Single-Color Real-Time PCR Detection System (Biorad, Marnes-la-Coquette, France) and were performed using the iQ SYBR Green Supermix kit following the supplier's recommendations, in 96-well plates, on 5 μl of diluted reverse transcription reaction mixtures with a hybridization temperature of 60° C. […]
The amount of fluorescence emitted is directly proportional to the amount of complementary DNA present at the start of the reaction and amplified during PCR. […] The relative expression levels of each target are thus determined using the efficacy curves obtained with the points in the range. […]

Test [2] has as its system MCP1 and MMP9 genes in human monocytes (THP1). The experiment in a line: Expression of MCP1 and MMP9 in human monocytes stimulated with PMA, quantitative RT-PCR. It is filed as cell-based. The settings on record: 24 h. How it is done:
The antiinflammatory effects of the compounds according to the invention were evaluated by measuring the secretion and expression of macrophages chemoattractant protein (MCP1) and of matrix metalloproteinase 9 (MMP9) by monocytes treated with the compounds according to the invention for 24 hours and stimulated with PMA (phorbol 12-myristate 13-acetate, which causes an inflammatory response of the cells). The more the amount of MCP1 secreted is reduced, the greater the inhibitory action of the compounds according to the invention on the inflammatory reaction. Similarly, the more the expression of the genes coding for MCP1 and MMP9 is inhibited, the greater the antiinflammatory effect of the compounds according to the invention.
The THP1 human monocyte line (obtained from ATCC) is cultivated in RPMI1640 medium with addition of 25 mM Hepes (Gibco; 42401-018), 1% glutamine (Gibco; 25030-24) 1% penicillin/streptomycin (Biochrom AG; A 2213) and 10% decomplemented fetal calf serum (FCS. Gibco; 10270-106).
The cells are seeded on 24-well plates (Primaria BD Falcon) at a density of 8.70·10^5 cells/well in the treatment medium (same composition as the culture medium but with 0.2% of decomplemented fetal calf serum) and in the presence of 5 ng/mL of phorbol 12-myristate 13-acetate (PMA) for inducing the inflammatory response.
The compounds according to the invention were tested at 0.1, 0.3 and/or at 1 μm, and dissolved in dimethylsulfoxide (DMSO, Fluka; 41640). The cells are treated for 24 h at 37° C., 5% CO2. The effect of the compound according to the invention is compared with the effect of DMSO alone.
After treatment, the total RNA is extracted from the cells using the NucleoSpin® 96 RNA kit (Macherey Nagel, Hoerdt, France) following the manufacturer's instructions.
1 μg of total RNA (quantified based on the reading of the UV spectrophotometer) was then reverse-transcribed to complementary DNA by reaction for 1 hour at 37° C. in a total volume of 30 μl containing buffer 1× (Invitrogen), 1.5 mM of DTT, 0.18 mM of dNTPs (Promega), 200 ng of pdN6 (Amersham), 30 U of RNase inhibitor (Promega) and 1 μl of MMLV-RT (Invitrogen).
The quantitative PCR experiments were carried out using the MyiQ Single-Color Real-Time PCR Detection System (Biorad, Marnes-la-Coquette, France) and were performed using the iQ SYBR Green Supermix kit following the supplier's recommendations, in 96-well plates, on 5 μl of diluted reverse-transcription reaction mixture with a hybridization temperature of 60° C. Primer pairs specific to the MCP1 and MMP9 genes under investigation were used:
The amount of fluorescence emitted is directly proportional to the amount of complementary DNA present at the start of the reaction and amplified during PCR. […] The relative expression levels of each target are thus determined using the efficacy curves obtained with the points in the range.
The levels of expression of the genes of interest were then normalized, […] relative to the level of expression of the reference gene 36B4 (whose specific primers are: sense primer: 5′-[…]-3′ (SEQ ID No. 19) and antisense primer: 5′-[…]-3′ (SEQ ID No. 20)). The induction factor, i.e. the ratio of the relative signal (induced by the compound according to the invention) to the mean of the relative values of the control group, was then calculated. […]

With `CC(C)(Oc1ccc(CCC(=O)c2ccc(-c3ccc(C(F)(F)F)cc3)s2)c(Cl)c1Cl)C(=O)O` [Compound 2, 2-(2,3-dichloro-4-(3-oxo-3-(5-(4-(trifluoromethyl)phenyl)thien-2-yl)propyl)phenoxy)-2-methylpropanoic acid], in test [1] (at 1 μm), the “expression of the gene coding for ABCA1 in human macrophages” value (shortened to “expression of the gene coding for ABCA1”) was “significant increase”. Also, the “expression of MCP1 in human monocytes” value in test [2] (at 0.1 and 0.3 μm) is “significant decrease”.

Take `CC(C)(Oc1ccc(CCC(O)c2ccc(-c3ccc(C(F)(F)F)cc3)s2)c(Cl)c1Cl)C(=O)O` (centres unmarked) [Compound 4, 2-(2,3-dichloro-4-(3-hydroxy-3-(5-(4-(trifluoromethyl)phenyl)thien-2-yl)propyl)phenoxy)-2-methylpropanoic acid]: in test [1] (at 1 μm), the “expression of the gene coding for ABCA1” value is given as “significant increase”.

For `CC(C)(Oc1ccc(CCC(OCc2ccccc2)c2ccc(-c3ccc(C(F)(F)F)cc3)s2)c(Cl)c1Cl)C(=O)O` (centres unmarked) [Compound 7, 2-(4-(3-(benzyloxy)-3-(5-(4-(trifluoromethyl)phenyl)thien-2-yl)propyl)-2,3-dichlorophenoxy)-2-methylpropanoic acid], the “expression of the gene coding for ABCA1” value in test [1] (at 300 nM) is given as “significant increase”. In test [2] (at 1 μm), the “expression of MCP1 in human monocytes” value is reported as “significant decrease” and the “expression of MMP9 in human monocytes” value was “significant decrease”.

Regarding `CC(C)(Oc1ccc(CCC(=O)c2cc(-c3ccc(C(F)(F)F)cc3)cs2)c(Cl)c1Cl)C(=O)O` [Compound 11, 2-(2,3-dichloro-4-(3-oxo-3-(4-(4-(trifluoromethyl)phenyl)thien-2-yl)propyl)phenoxy)-2-methylpropanoic acid], in test [2] (at 1 μm), the “expression of MCP1 in human monocytes” value is “significant decrease” and the “expression of MMP9 in human monocytes” value is “significant decrease”.
